Test results reported in article PMC12655351, “Synthesis and Anticancer Activity Evaluation of New 5-((5-Nitrofuran-2-yl)allylidene)-2-thioxo-4-thiazolidinones” (Pharmaceuticals, 2025).
Values joined by “and” are separate entries in the source; they are usually repeats but may differ in a detail not shown here. Equal entries are not always repeated. Where two headings read alike, the source gives them in different places.

What was measured:
MOLT-4 [1] = test: cells; details: Homo sapiens, MOLT-4, 48 h
RPMI-8226 = details: RPMI-8226, 48 h
CCRF-CEM [2] = test: cells; details: Homo sapiens, 48 h
786-0 = details: 786-0, 48 h
MOLT-4 [3] = details: MOLT-4, 48 h
DU-145 = details: for growth GP: DU-145, 10 μM; for growth GP / CC50: 48 h; for GI50 / TGI: DU-145, 48 h; for CC50: human
NCI/ADR-RES = test: cells; details: Homo sapiens, 48 h
HL-60(TB) = test: NCI-60 SRB screen
AGS = test: MTT assay; type: cell-based; details: Homo sapiens, 24 h of treatment
Experimental: (§1) The NCI-60 screening protocol utilizes the sulforhodamine B (SRB) assay following 48 h of compound exposure. […] The MTT assay was performed on eleven cancer cell lines: human breast cancer (MDA-MB-231, MCF-7, HCC 1954), human gastric cancer (AGS), human colorectal adenocarcinoma (HT-29, DLD-1, HCT 116), human neuroblastoma (SH SY5Y), and human leukemia (JURKAT, RMPI 8866, K-562) cell lines. The study was conducted in triplicate at the following seven concentrations: 0.62, 1.25, 2.5, 5, 10, 20, and 40 μM.
(§2) The selected cell lines were seeded into 96-well plates and cultured in accordance with the previously described methodology. Then, the cells were treated with all tested compounds and DOX at concentrations of 0.625, 1.25, 2.5, 5.0, 10.0, 20.0, and 40.0 μM for 24 h. A solution of 3-(4,5-dimethyl-2-thiazolyl)-2,5-diphenyl-2H-tetrazolium bromide (Sigma-Aldrich, St. Louis, MO, USA) in phosphate-buffered saline without calcium and magnesium (Corning, Kennebunk, ME, USA) at a concentration of 5 mg/mL was used to carry out MTT assay. After incubation, 20 μL of the prepared MTT solution was added, and then the cells were incubated at 37 °C for two hours. Afterwards, the cells were lysed using 100 μL of lysing buffer (comprising 25 mM HCl, 2% acetic acid, 3% DMF, and 5% SDS, with a pH of 4.7). The absorbance was determined at a wavelength of 570 nm using an Absorbance 96 microplate reader (Byonoy GmbH, Hamburg, Germany).

K562 = test: MTT assay; type: cell-based; details: Homo sapiens; K562, 24 h of treatment
Experimental: as §1, §2

MDA-MB-231 = test: MTT assay; type: cell-based; details: Homo sapiens; MDA-MB-231, 24 h of treatment
Experimental: as §1, §2

SH SY5Y = test: MTT assay; type: cell-based; details: Homo sapiens, 24 h of treatment
Experimental: as §1, §2

HT-29 = test: MTT assay; type: cell-based; details: Homo sapiens; HT-29, 24 h of treatment
Experimental: as §1, §2

HCC-1954 = test: MTT assay; type: cell-based; details: Homo sapiens, HCC1954; HCC-1954, 24 h of treatment
Experimental: as §1, §2

HCT-116 = test: MTT assay; type: cell-based; details: Homo sapiens; HCT-116, 24 h of treatment
Experimental: as §1, §2

MCF-7 = test: MTT assay; type: cell-based; details: Homo sapiens, MCF7; MCF-7, 24 h of treatment
Experimental: as §1, §2

Jurkat = test: MTT assay; type: cell-based; details: Homo sapiens, 24 h of treatment
Experimental: as §1, §2

RPMI 8866 = test: MTT assay; type: cell-based; details: Homo sapiens; RPMI 8866, 24 h of treatment
Experimental: as §1, §2

DLD-1 = test: MTT assay; type: cell-based; details: Homo sapiens; DLD-1, 24 h of treatment
Experimental: as §1, §2

TK-10 [4] = details: for growth GP: TK-10, 10 μM; for growth GP / CC50: 48 h; for CC50: human
SW-620 = test: NCI-60 SRB screen; details: SW-620, 48 h
CCRF-CEM [5] = details: 48 h
[6] = system: Non-small cell lung cancer; test: cells; details: Homo sapiens; for GI50: read-out: MG_MID GI50; for CC50: read-out: MG_MID LC50
CNS cancer = test: cells; details: Homo sapiens; for GI50: read-out: MG_MID GI50; for CC50: read-out: MG_MID LC50
T-47D = test: cells; details: Homo sapiens, T47D, 48 h; for CC50: read-out: LC50
TK-10 [7] = test: cells; details: Homo sapiens, TK-10, 48 h; for CC50: read-out: LC50, TK-10, 48 h
HOP-92 = test: NCI-60 SRB screen; details: HOP-92, 48 h
SK-MEL-2 = test: NCI-60 SRB screen; details: SK-MEL-2, 48 h; for CC50: Homo sapiens, read-out: LC50, SK-MEL-2, 48 h
EKVX = test: NCI-60 SRB screen; details: 48 h; for CC50: read-out: LC50, EKVX, 48 h
OVCAR-5 = test: NCI-60 SRB screen; details: for growth GP: OVCAR-5, 10 μM, 48 h; for TGI / GI50: OVCAR-5, 48 h
SK-MEL-28 = test: cells; details: Homo sapiens, SK-MEL-28, 48 h
[8] = Homo sapiens, read-out: LC50, HOP-92, 48 h

**Q.** Which GI50 (MOLT-4 [1]) does the source give for `O=C(O)CCCN1C(=O)/C(=C/C=C/c2ccc([N+](=O)[O-])o2)SC1=S` [13b, 4-((Z)-5-((E)-3-(5-Nitrofuran-2-yl)allylidene)-4-oxo-2-thioxothiazolidin-3-yl)butanoic acid] here?
**A.** 410 nM

**Q.** What about the CC50 (MOLT-4 [1]; read-out: LC50, MOLT-4, 48 h) of the same compound?
**A.** 8990 nM

**Q.** And the TGI (RPMI-8226)?
**A.** 1580 nM

**Q.** What about the GI50 (CCRF-CEM [2]) of the same compound?
**A.** 190 nM

**Q.** What about the GI50 (786-0) of the same compound?
**A.** 280 nM

**Q.** What about the TGI (786-0) of the same compound?
**A.** 1300 nM and 900 nM

**Q.** What about the GI50 (MOLT-4 [3]) of the same compound?
**A.** 290 nM

**Q.** What about the TGI (MOLT-4 [3]) of the same compound?
**A.** 1860 nM and 1160 nM

**Q.** And the “growth GP” value (DU-145)?
**A.** -99.43%

**Q.** And the GI50 (DU-145)?
**A.** 1150 nM

**Q.** What about the TGI (DU-145) of the same compound?
**A.** 2320 nM and 2830 nM

**Q.** What about the CC50 (DU-145) of the same compound?
**A.** 7010 nM

**Q.** What about the GI50 (NCI/ADR-RES) of the same compound?
**A.** 290 nM

**Q.** And the CC50 (HL-60(TB); Homo sapiens, HL-60, 48 h, read-out: LC50, HL-60(TB), 48 h)?
**A.** > 100000 nM

**Q.** And the IC50 (AGS)?
**A.** 2100 nM

**Q.** What about the IC50 (K562) of the same compound?
**A.** 3570 nM

**Q.** And the IC50 (MDA-MB-231)?
**A.** 8730 nM

**Q.** And the IC50 (SH SY5Y)?
**A.** 8410 nM

**Q.** And the IC50 (HT-29)?
**A.** 4390 nM

**Q.** And the IC50 (HCC-1954)?
**A.** 3120 nM

**Q.** What about the IC50 (HCT-116) of the same compound?
**A.** 3970 nM

**Q.** What about the IC50 (MCF-7) of the same compound?
**A.** 1630 nM

**Q.** What about the IC50 (Jurkat) of the same compound?
**A.** 500 nM

**Q.** And the IC50 (RPMI 8866)?
**A.** 3940 nM

**Q.** And the IC50 (DLD-1)?
**A.** 3180 nM

**Q.** And the “growth GP” value (TK-10 [4])?
**A.** -97.38%

**Q.** And the TGI (TK-10 [4]; TK-10, 48 h)?
**A.** 3180 nM and 2030 nM

**Q.** And the CC50 (TK-10 [4])?
**A.** 4770 nM

**Q.** And the GI50 (SW-620; Homo sapiens)?
**A.** 240 nM

**Q.** And the GI50 (SW-620)?
**A.** 280 nM

**Q.** And the TGI (SW-620)?
**A.** 540 nM and 830 nM

**Q.** What about the GI50 (CCRF-CEM [5]) of the same compound?
**A.** 120 nM

**Q.** What about the TGI (CCRF-CEM [5]) of the same compound?
**A.** 820 nM and 780 nM

**Q.** And the GI50 [6]?
**A.** 1210 nM

**Q.** What about the CC50 [6] of the same compound?
**A.** 24600 nM

**Q.** What about the GI50 (CNS cancer) of the same compound?
**A.** 800 nM

**Q.** What about the CC50 (CNS cancer) of the same compound?
**A.** 6680 nM

**Q.** And the GI50 (T-47D; T-47D)?
**A.** 340 nM

**Q.** And the CC50 (T-47D)?
**A.** > 100000 nM

**Q.** What about the CC50 (TK-10 [7]) of the same compound?
**A.** 5840 nM

**Q.** And the CC50 (HOP-92; [8])?
**A.** 6330 nM

**Q.** And the CC50 (HOP-92; read-out: LC50)?
**A.** 4240 nM

**Q.** And the CC50 (SK-MEL-2)?
**A.** 6120 nM

**Q.** And the GI50 (EKVX)?
**A.** 1050 nM

**Q.** What about the TGI (EKVX) of the same compound?
**A.** 4240 nM and 2520 nM

**Q.** What about the GI50 (EKVX; Homo sapiens) of the same compound?
**A.** 1830 nM

**Q.** What about the CC50 (EKVX; Homo sapiens) of the same compound?
**A.** 9840 nM

**Q.** What about the “growth GP” value (OVCAR-5) of the same compound?
**A.** -97.64%

**Q.** And the TGI (OVCAR-5)?
**A.** 3320 nM and 2020 nM

**Q.** What does the source list for `O=C(O)CCCCCN1C(=O)/C(=C/C=C/c2ccc([N+](=O)[O-])o2)SC1=S` [14b, 6-((Z)-5-((E)-3-(5-nitrofuran-2-yl)allylidene)-4-oxo-2-thioxothiazolidin-3-yl)hexanoic acid]?
**A.** GI50 (SK-MEL-28): 1640 nM; CC50 (SK-MEL-28; read-out: LC50, SK-MEL-28, 48 h): 5900 nM; GI50 (MOLT-4 [1]): 370 nM; TGI (RPMI-8226): 1320 nM; GI50 (CCRF-CEM [2]): 180 nM; GI50 (786-0): 320 nM; TGI (786-0): 2060 nM and 1230 nM; GI50 (MOLT-4 [3]): 310 nM; TGI (MOLT-4 [3]): 1500 nM and 1210 nM; growth GP (DU-145): -98.04%; GI50 (DU-145): 1590 nM; TGI (DU-145): 2870 nM and 3180 nM; CC50 (DU-145): 6350 nM; GI50 (NCI/ADR-RES): 450 nM; GI50 (HL-60(TB); HL-60(TB), 48 h): 1110 nM; TGI (HL-60(TB); HL-60(TB), 48 h): 3320 nM and 2810 nM; GI50 (HL-60(TB); Homo sapiens, HL-60, 48 h, HL-60(TB), 48 h): 750 nM; IC50 (AGS): 2570 nM; IC50 (K562): 1530 nM; IC50 (MDA-MB-231): 6610 nM; IC50 (SH SY5Y): 4110 nM; IC50 (HT-29): 4520 nM; IC50 (HCC-1954): 3300 nM; IC50 (HCT-116): 2110 nM; IC50 (MCF-7): 850 nM; IC50 (Jurkat): 280 nM; IC50 (RPMI 8866): 3130 nM; IC50 (DLD-1): 1800 nM; growth GP (TK-10 [4]): -95.04%; GI50 (TK-10 [4]; TK-10, 48 h): 1850 nM; TGI (TK-10 [4]; TK-10, 48 h): 3320 nM and 3470 nM; CC50 (TK-10 [4]): 6330 nM; GI50 (SW-620; Homo sapiens): 230 nM; GI50 (SW-620): 240 nM; TGI (SW-620): 570 nM and 610 nM; GI50 (CCRF-CEM [5]): 270 nM; TGI (CCRF-CEM [5]): 570 nM and 960 nM; GI50 [6]: 1480 nM; CC50 [6]: 21800 nM; GI50 (CNS cancer): 1140 nM; CC50 (CNS cancer): 6090 nM; CC50 (T-47D): > 100000 nM; GI50 (TK-10 [7]): 1880 nM; CC50 (TK-10 [7]): 5840 nM; GI50 (HOP-92): 1050 nM; TGI (HOP-92): 3340 nM and 2480 nM; GI50 (HOP-92; Homo sapiens): 1740 nM; CC50 (HOP-92; [8]): 6410 nM; CC50 (SK-MEL-2): 6010 nM; TGI (SK-MEL-2): 2950 nM and 2330 nM; GI50 (EKVX): 1680 nM; TGI (EKVX): 3480 nM and 3550 nM; GI50 (EKVX; Homo sapiens): 1740 nM; CC50 (EKVX; Homo sapiens): 6940 nM; GI50 (OVCAR-5; Homo sapiens): 1850 nM; growth GP (OVCAR-5): -96.01%; GI50 (OVCAR-5): 1560 nM; TGI (OVCAR-5): 3310 nM and 2970 nM
